Source: patent US5003055A, “Anthracycline derivatives having inhibitory activity against reverse transcriptase of human immunodeficiency virus” (priority 1987, dated 1991)
Converted amounts (≈) assume the structure as drawn. Counter-ions that a name gives are not always drawn. Like-named read-outs stand apart in the source and are kept apart here.

Tests used:
[1] = test system: mouse lymphocytic leukemia P-388 cells; test: Cytotoxicity against P-388 cells (proliferation, MTT technique); assay type: cell-based; settings: for IC50: Mus musculus, P388, 48 h, read-out: Cytotoxicity against P-388 cells (IC50, μg/ml) (B); for Cytotoxicity against P-388 cells (IC50, μg/ml) (B): 2880 min
Experimental: (b) On the other hand, the cytotoxicity was measured in the following manner. The novel anthracycline derivative of this invention was added to 5×10^3 cells of mouse lymphocytic leukemia P-388 in an incubation medium. After stirring, themixture was incubated Forty-eight hours later, the rate (%) of proliferation of the cells was measured by the MTT technique.

[2] = background statement; cited from earlier work
[3] = target: HIV reverse transcriptase (Human immunodeficiency virus type 1 group M subtype B, UniProt P04585); test: biochemical; settings: for IC50: HIV reverse transcriptase inhibitory activity (IC50, μg/ml) (A), 37° C., 30 minutes, HIV lysate; for Enzyme inhibitory activity/cytotoxicity ratio (A)/(B): ratio of IC50 HIV reverse transcriptase (A) to IC50 P-388 (B)
Experimental: (a) After treating a supernatant of a culture of HIV-infected T4-cells (Molt 4/HTLV 1116/H9) with 9.5% polyethylene glycol for 3 hours, the supernatant was centrifuged at 2500 rpm for 30 minutes to obtain a precipitate. This precipitate was lysed with a mixture comprising 33.3% glycerol, […] tris-HCl (pH 7.5), 533 mM KCl, 0.32% Triton X-100 and 3.3 mM dithiothreitol, so as to prepare an HIV lysate (2.5×10^6 PFU/ml) The activity of the reverse transcriptase present in the HIV lysate thus prepared was determined in terms of the up-take rate of [α-^32 P]dATP during the synthesis of DNA, with using rabbit-β-globin mRNA and oligo dT as the template and primer, respectively. Thus, 1 μl of the HIV lysate was added to 9 μl of an enzymatic reaction solution comprising 50 mM tris-HCl (pH 8.3), 70 mM KCl, 10 mM MgCl2, 30 mM mercaptoethanol, 90 nM dNTPs, 3.3 μg/ml oligo dT, 8.3 mU/ml human placenta RNase inhibitor, 5 μg/ml β-globin mRNA, 0.14 mCi/ml [α-^32 P]dATP. After incubating the resultant mixture at 37° C. for 30 minutes, 10% aqueous trichloroacetic acid (TCA) was added to terminate the reaction.
After completion of the reaction, the whole reaction mixture was placed on a nitrocellulose membrane filter so as to adsorb the resultant DNA into the filter. The filter was then washed with 5% TCA and 20 mM sodium pyrophosphate to remove the unreacted [α-^32 P]dATP therefrom. The amount of the resultant DNA on the nitrocellulose membrane filter was calculated by measuring its radioactivity.
The novel anthracycline derivatives of this invention were separately added to the enzymatic reaction solution. The above experiment was repeated using the so prepared enzymatic reaction solution containing the anthracycline derivative as a test compound, so that the evaluation was made of IC50 of the test compound inhibitory to the activity of the HIV reverse transcriptase, namely the concentration of the test compound which was 50% inhibitory to the activity of the HIV reverse transcriptase.

Row | SMILES | IC50 ([1]; P-388, 48 hours, MTT technique) | toxicity (in words) [2] | Cytotoxicity against P-388 cells (IC50, μg/ml) (B) ([1]; P-388, 48 hours, MTT technique) | IC50 [3] | Enzyme inhibitory activity/cytotoxicity ratio (A)/(B) [3] | IC50 [1]
1 | COc1cccc2c1C(=O)c1c(O)c3c(c(O)c1C2=O)C[C@@](O)(C(=O)CO)C[C@@H]3O[C@H]1C[C@H](N)[C@H](O)[C@H](C)O1 [ADM, adriamycin, reference compound] | 0.037 µg/mL (≈ 0.0681 µM) | high toxicity |  |  |  | 
2 | COc1cccc2c1C(=O)c1c(O)c3c(c(O)c1C2=O)C[C@@](O)(C(=O)CO)C[C@@H]3O[C@H]1C[C@H](N)[C@H](O)[C@H](C)O1 [ADM.HCl, reference compound] |  |  | 0.02 µg/mL |  |  | 
3 | COCc1ccc(C(=O)OCC(=O)[C@]2(O)Cc3c(O)c4c(c(O)c3[C@@H](O[C@H]3C[C@H](N)[C@H](O)[C@H](C)O3)C2)C(=O)c2c(OC)cccc2C4=O)cc1OC [NOVA-1, 14-O-(3-methoxy-4-methoxymethylbenzoyl)adriamycin] | 0.29 µg/mL (≈ 0.402 µM) |  |  | 41.6 µM | 103 | 
4 | CCCCCCOCc1ccc(C(=O)OCC(=O)[C@]2(O)Cc3c(O)c4c(c(O)c3[C@@H](O[C@H]3C[C@H](N)[C@H](O)[C@H](C)O3)C2)C(=O)c2c(OC)cccc2C4=O)cc1OCCCCCC [NOVA-2, 14-O-(3-n-hexyloxy-4-n-hexyloxymethylbenzoyl)adriamycin] | 0.48 µg/mL (≈ 0.557 µM) |  |  | 19.7 µM | 35 | 
5 | CCCCCCCCCCCOCc1ccc(C(=O)OCC(=O)[C@]2(O)Cc3c(O)c4c(c(O)c3[C@@H](O[C@H]3C[C@H](N)[C@H](O)[C@H](C)O3)C2)C(=O)c2c(OC)cccc2C4=O)cc1OCCCCCCCCCCC [NOVA-3.HCl, 14-O-(3-n-undecyloxy-4-n-undecyloxymethylbenzoyl)adriamycin hydrochloride] | 0.49 µg/mL |  |  | 18.5 µM | 38 | 
6 | CCCCCCCCCCCOc1cc(C(=O)OCC(=O)[C@]2(O)Cc3c(O)c4c(c(O)c3[C@@H](O[C@H]3C[C@H](N)[C@H](O)[C@H](C)O3)C2)C(=O)c2c(OC)cccc2C4=O)ccc1CO [NOVA-4, 14-O-(3-n-undecyloxy-4-hydroxymethylbenzoyl)adriamycin] | 0.5 µg/mL (≈ 0.59 µM) |  |  | 14.7 µM | 25 | 
7 | CCCCCCCCCCCCCCCCCCOCc1ccc(C(=O)OCC(=O)[C@]2(O)Cc3c(O)c4c(c(O)c3[C@@H](O[C@H]3C[C@H](N)[C@H](O)[C@H](C)O3)C2)C(=O)c2c(OC)cccc2C4=O)cc1OCCCCCCCCCCCCCCCCCC [NOVA-5.HCl, 14-O-(3-n-octadecyloxy-4-n-octadecyloxymethylbenzoyl)adriamycin hydrochloride] | 3.2 µg/mL |  |  | 18.4 µM | 6.9 | 
8 | COc1cccc2c1C(=O)c1c(O)c3c(c(O)c1C2=O)C[C@@](O)(C(=O)COC(=O)c1ccc(CO)c(O)c1)C[C@@H]3O[C@H]1C[C@H](N)[C@H](O)[C@H](C)O1 [NOVA-6, 14-O-(3-hydroxy-4-hydroxymethylbenzoyl)adriamycin] | 0.15 µg/mL (≈ 0.216 µM) |  |  | 79.3 µM | 370 | 
9 | COc1cccc2c1C(=O)c1c(O)c3c(c(O)c1C2=O)C[C@@](O)(C(=O)COC(=O)c1ccc2c(c1)OC(C)(C)OC2)C[C@@H]3O[C@H]1C[C@H](N)[C@H](O)[C@H](C)O1 [NOVA-7, 14-O-(0-isopropylidene-3-hydroxy4-hydroxymethylbenzoyl)adriamycin] |  |  |  | 31.3 µM | 121 | 0.19 µg/mL (≈ 0.259 µM)
10 | COc1ccc(C(=O)OCC(=O)[C@]2(O)Cc3c(O)c4c(c(O)c3[C@@H](O[C@H]3C[C@H](N)[C@H](O)[C@H](C)O3)C2)C(=O)c2c(OC)cccc2C4=O)cc1OC [NOVA-8, 14-O-(3,4-dimethoxybenzoyl)-adriamycin] | 0.33 µg/mL (≈ 0.466 µM) |  |  | 26.8 µM | 58 | 
11 | CCCCCCOc1ccc(C(=O)OCC(=O)[C@]2(O)Cc3c(O)c4c(c(O)c3[C@@H](O[C@H]3C[C@H](N)[C@H](O)[C@H](C)O3)C2)C(=O)c2c(OC)cccc2C4=O)cc1OCCCCCC [NOVA-9, 14-O-(3,4-di-n-hexyloxybenzoyl)adriamycin] | 2.6 µg/mL (≈ 3.07 µM) |  |  | 23.6 µM | 7.8 | 
12 | CCCCCCOc1ccc(C(=O)OCC(=O)[C@]2(O)Cc3c(O)c4c(c(O)c3[C@@H](O[C@H]3C[C@H](N)[C@H](O)[C@H](C)O3)C2)C(=O)c2c(OC)cccc2C4=O)cc1OCCCCCC [NOVA-9.1/2H2 SO4] |  |  | 5.2 µg/mL | 27.1 µM | 4.4 | 
13 | CCCCCCOc1ccc(C(=O)OCC(=O)[C@]2(O)Cc3c(O)c4c(c(O)c3[C@@H](O[C@H]3C[C@H](N)[C@H](O)[C@H](C)O3)C2)C(=O)c2c(OC)cccc2C4=O)cc1OCCCCCC [NOVA-9.HCl] |  |  | 3.1 µg/mL | 17.7 µM | 4.8 | 
14 | CCCCCCCCCCCOc1ccc(C(=O)OCC(=O)[C@]2(O)Cc3c(O)c4c(c(O)c3[C@@H](O[C@H]3C[C@H](N)[C@H](O)[C@H](C)O3)C2)C(=O)c2c(OC)cccc2C4=O)cc1OCCCCCCCCCCC [NOVA-10.HCl] | 1.8 µg/mL |  |  | 16.2 µM | 8.9 | 
15 | CCCCCCCCCCCCCCCCCCOc1ccc(C(=O)OCC(=O)[C@]2(O)Cc3c(O)c4c(c(O)c3[C@@H](O[C@H]3C[C@H](N)[C@H](O)[C@H](C)O3)C2)C(=O)c2c(OC)cccc2C4=O)cc1OCCCCCCCCCCCCCCCCCC [NOVA-11.HCl] | 1.9 µg/mL |  |  | 84.4 µM | 53 | 
16 | CCCCC(=O)Oc1ccc(C(=O)OCC(=O)[C@]2(O)Cc3c(O)c4c(c(O)c3[C@@H](O[C@H]3C[C@H](N)[C@H](O)[C@H](C)O3)C2)C(=O)c2c(OC)cccc2C4=O)cc1OC(=O)CCCC [NOVA-12.HCl] | 0.22 µg/mL |  |  | 13 µM | 50 | 
